This note sets out measurements from ChEMBL document CHEMBL5346903, “Discovery of novel and bioavailable histone deacetylases and cyclin-dependent kinases dual inhibitor to impair the stemness of leukemia cells” (Eur J Med Chem, 2023).

In one assay the test system is U-937. In words: Antiproliferative activity against human U-937 cells incubated for 72 hrs by CCK8 assay. The conditions noted are these: U-937, 72 h. The format is functional, cell-based. (In general: Tetrazolium dyes change colour on reduction, which living cells bring about.)
Another assay deals with HL-60. Put plainly: Antiproliferative activity against human HL-60 cells incubated for 72 hrs by CCK8 assay. It is filed as functional, cell-based. To be noted: HL-60, 72 h.
Assay [1] can be described thus: Antiproliferative activity against human SKNO-1 cells incubated for 72 hrs by CCK8 assay. It is filed as functional, cell-based. The conditions noted are these: SKNO-1, 72 h.
Assay [2] concerns Kasumi 1. Put plainly: Antiproliferative activity against human Kasumi 1 cells incubated for 72 hrs by CCK8 assay. It is filed as functional, cell-based. To be noted: Kasumi 1, 72 h.
Assay [3] has as its system Kasumi 1. In words: Synergistic antiproliferative activity against human Kasumi 1 cells assessed as combination index incubated for 72 hrs in presence of Chidamide by CCK-8 assay. It is filed as functional.
Assay [4] addresses CDK1/Cyclin A (Homo sapiens) (UniProt P06493+P20248). In words: Inhibition of CDK1/cyclinA2 (unknown origin) at 100 nM preincubated for 20 mins followed by [gamma-33P]ATP addition measured after 120 mins in presence of ATP by Hot-SpotSM kinase assay relative to control. It is filed as protein-complex assay. To be noted: time 140.0 min.
Assay [5] addresses Cyclin-dependent kinase 1/cyclin B1 (Homo sapiens) (UniProt P06493+P14635). Put plainly: Inhibition of CDK1/cyclinB1 (unknown origin) at 100 nM preincubated for 20 mins followed by [gamma-33P]ATP addition measured after 120 mins in presence of ATP by Hot-SpotSM kinase assay relative to control. The format is protein-complex assay. To be noted: time 140.0 min.
Assay [6] has as its target CDK1/Cyclin E (Homo sapiens) (UniProt P06493+P24864). Put plainly: Inhibition of CDK1/cyclinE1 (unknown origin) at 100 nM preincubated for 20 mins followed by [gamma-33P]ATP addition measured after 120 mins in presence of ATP by Hot-SpotSM kinase assay relative to control. It is filed as protein-complex assay. The conditions noted are these: time 140.0 min.
The target in assay [7] is CDK3/Cyclin E (Homo sapiens) (UniProt P24864+Q00526). In words: Inhibition of CDK3/cyclinE1 (unknown origin) at 100 nM preincubated for 20 mins followed by [gamma-33P]ATP addition measured after 120 mins in presence of ATP by Hot-SpotSM kinase assay relative to control. The format is protein-complex assay. The conditions noted are these: time 140.0 min.
Assay [8] concerns the target Cyclin-dependent kinase 4/cyclin D1 (Homo sapiens) (UniProt P11802+P24385). Put plainly: Inhibition of CDK4/cyclinD1 (unknown origin) at 100 nM preincubated for 20 mins followed by [gamma-33P]ATP addition measured after 120 mins in presence of ATP by Hot-SpotSM kinase assay relative to control. It is filed as protein-complex assay. The conditions noted are these: time 140.0 min.

The target in assay [9] is CDK4/Cyclin D3 (Homo sapiens) (UniProt P11802+P30281). In words: Inhibition of CDK4/cyclinD3 (unknown origin) at 100 nM preincubated for 20 mins followed by [gamma-33P]ATP addition measured after 120 mins in presence of ATP by Hot-SpotSM kinase assay relative to control. It is filed as protein-complex assay. The conditions noted are these: time 140.0 min.
The target in assay [10] is T1, Cyclin-dependent kinase 5/CDK5 activator 1 (Homo sapiens) (UniProt Q00535+Q15078). Put plainly: Inhibition of CDK5/p25NCK (unknown origin) at 100 nM preincubated for 20 mins followed by [gamma-33P]ATP addition measured after 120 mins in presence of ATP by Hot-SpotSM kinase assay relative to control. To be noted: time 140.0 min. The format is protein-complex assay.

Assay [11] deals with T1, Cyclin-dependent kinase 5/CDK5 activator 1 (Homo sapiens). In words: Inhibition of CDK5/p35NCK (unknown origin) at 100 nM preincubated for 20 mins followed by [gamma-33P]ATP addition measured after 120 mins in presence of ATP by Hot-SpotSM kinase assay relative to control. The format is protein-complex assay. The conditions noted are these: time 140.0 min.
Assay [12] deals with CDK6/cyclin D1 (Homo sapiens) (UniProt P24385+Q00534). In words: Inhibition of CDK6/cyclinD1 (unknown origin) at 100 nM preincubated for 20 mins followed by [gamma-33P]ATP addition measured after 120 mins in presence of ATP by Hot-SpotSM kinase assay relative to control. The format is protein-complex assay. The conditions noted are these: time 140.0 min.
In assay [13] the target is CDK6/cyclin D3 (Homo sapiens) (UniProt P30281+Q00534). Put plainly: Inhibition of CDK6/cyclinD3 (unknown origin) at 100 nM preincubated for 20 mins followed by [gamma-33P]ATP addition measured after 120 mins in presence of ATP by Hot-SpotSM kinase assay relative to control. The format is protein-complex assay. The conditions noted are these: time 140.0 min.
In assay [14] the target is CDK12/Cyclin K (Homo sapiens) (UniProt O75909+Q9NYV4). In words: Inhibition of CDK12/cyclinK (unknown origin) at 100 nM preincubated for 20 mins followed by [gamma-33P]ATP addition measured after 120 mins in presence of ATP by Hot-SpotSM kinase assay relative to control. To be noted: time 140.0 min. It is filed as protein-complex assay.
In assay [15] the target is Cyclin-dependent kinase 13/Cyclin-K (Homo sapiens) (UniProt Q14004+O75909). In words: Inhibition of CDK13/cyclinK (unknown origin) at 100 nM preincubated for 20 mins followed by [gamma-33P]ATP addition measured after 120 mins in presence of ATP by Hot-SpotSM kinase assay relative to control. The format is protein-complex assay. The conditions noted are these: time 140.0 min.

Assay [16] has as its target Cyclin-C/Cyclin-dependent kinase 19 (Homo sapiens) (UniProt Q9BWU1+P24863). Put plainly: Inhibition of CDK19/cyclinC (unknown origin) at 100 nM preincubated for 20 mins followed by [gamma-33P]ATP addition measured after 120 mins in presence of ATP by Hot-SpotSM kinase assay relative to control. The conditions noted are these: time 140.0 min. It is filed as protein-complex assay.

T1 sequence (Q00535 whole entry): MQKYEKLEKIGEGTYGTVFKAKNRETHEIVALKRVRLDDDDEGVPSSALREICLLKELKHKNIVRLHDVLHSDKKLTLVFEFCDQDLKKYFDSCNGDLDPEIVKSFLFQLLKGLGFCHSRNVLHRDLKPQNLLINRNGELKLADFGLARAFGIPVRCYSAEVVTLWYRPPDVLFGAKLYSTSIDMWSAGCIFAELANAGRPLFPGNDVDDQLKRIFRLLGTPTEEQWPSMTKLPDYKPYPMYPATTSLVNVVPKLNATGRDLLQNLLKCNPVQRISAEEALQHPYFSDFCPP
T1 sequence (Q15078 99-307 partner limits assumed): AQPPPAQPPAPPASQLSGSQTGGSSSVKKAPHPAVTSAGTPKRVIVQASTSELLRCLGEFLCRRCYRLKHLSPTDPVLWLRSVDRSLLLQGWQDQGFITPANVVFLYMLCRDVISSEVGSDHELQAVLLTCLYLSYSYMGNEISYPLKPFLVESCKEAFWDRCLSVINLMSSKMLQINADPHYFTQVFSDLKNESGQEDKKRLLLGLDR
CDK1/Cyclin E (Homo sapiens), sequence (P06493 whole entry, looked up): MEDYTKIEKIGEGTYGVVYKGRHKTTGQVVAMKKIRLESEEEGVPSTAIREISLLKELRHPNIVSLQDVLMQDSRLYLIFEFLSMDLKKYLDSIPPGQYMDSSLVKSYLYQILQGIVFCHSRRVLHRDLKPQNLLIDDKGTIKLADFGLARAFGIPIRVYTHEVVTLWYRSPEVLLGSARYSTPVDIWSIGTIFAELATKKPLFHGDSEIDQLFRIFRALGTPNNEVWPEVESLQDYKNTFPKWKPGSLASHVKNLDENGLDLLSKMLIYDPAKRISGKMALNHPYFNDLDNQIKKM
CDK1/Cyclin E (Homo sapiens), sequence (P24864 whole entry, looked up): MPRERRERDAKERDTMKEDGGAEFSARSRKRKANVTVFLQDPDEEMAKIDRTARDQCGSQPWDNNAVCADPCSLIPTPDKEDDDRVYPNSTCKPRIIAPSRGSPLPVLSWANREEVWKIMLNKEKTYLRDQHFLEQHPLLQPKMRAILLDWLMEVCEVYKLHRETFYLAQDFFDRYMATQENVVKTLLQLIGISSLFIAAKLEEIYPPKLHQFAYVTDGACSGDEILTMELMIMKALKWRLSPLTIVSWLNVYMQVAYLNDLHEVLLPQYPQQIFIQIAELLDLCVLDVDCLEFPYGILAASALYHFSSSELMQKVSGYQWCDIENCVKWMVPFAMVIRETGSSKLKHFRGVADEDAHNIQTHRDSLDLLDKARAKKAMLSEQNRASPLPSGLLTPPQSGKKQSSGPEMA
Cyclin-dependent kinase 1/cyclin B1 (Homo sapiens), sequence (P06493 whole entry, looked up): as the sequence (P06493 whole entry, looked up) above
Cyclin-dependent kinase 1/cyclin B1 (Homo sapiens), sequence (P14635 whole entry, looked up): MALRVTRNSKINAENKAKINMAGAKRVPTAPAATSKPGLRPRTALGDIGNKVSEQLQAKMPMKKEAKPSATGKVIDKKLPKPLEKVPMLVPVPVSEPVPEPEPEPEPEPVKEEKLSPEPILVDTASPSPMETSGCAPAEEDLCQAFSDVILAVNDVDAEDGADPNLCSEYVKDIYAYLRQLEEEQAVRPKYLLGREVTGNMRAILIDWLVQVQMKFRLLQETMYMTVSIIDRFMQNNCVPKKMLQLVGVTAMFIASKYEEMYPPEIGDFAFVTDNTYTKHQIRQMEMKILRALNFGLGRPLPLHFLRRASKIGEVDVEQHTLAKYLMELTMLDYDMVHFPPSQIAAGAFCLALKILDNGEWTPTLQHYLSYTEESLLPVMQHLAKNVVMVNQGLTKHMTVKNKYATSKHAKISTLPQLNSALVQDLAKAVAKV
CDK1/Cyclin A (Homo sapiens), sequence (P06493 whole entry, looked up): as the sequence (P06493 whole entry, looked up) above
CDK1/Cyclin A (Homo sapiens), sequence (P20248 whole entry, looked up): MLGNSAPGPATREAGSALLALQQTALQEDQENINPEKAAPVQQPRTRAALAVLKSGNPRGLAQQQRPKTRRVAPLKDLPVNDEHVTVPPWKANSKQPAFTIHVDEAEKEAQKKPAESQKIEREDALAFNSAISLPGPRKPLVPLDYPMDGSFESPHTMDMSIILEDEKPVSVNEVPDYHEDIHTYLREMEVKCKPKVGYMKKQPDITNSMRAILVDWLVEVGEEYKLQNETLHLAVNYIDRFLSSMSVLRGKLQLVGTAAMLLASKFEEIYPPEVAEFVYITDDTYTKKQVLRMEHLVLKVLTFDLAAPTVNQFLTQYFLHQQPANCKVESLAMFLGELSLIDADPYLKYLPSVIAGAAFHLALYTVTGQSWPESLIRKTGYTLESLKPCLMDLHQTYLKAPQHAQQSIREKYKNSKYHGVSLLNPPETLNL
CDK3/Cyclin E (Homo sapiens), sequence (P24864 whole entry, looked up): as the sequence (P24864 whole entry, looked up) above
CDK3/Cyclin E (Homo sapiens), sequence (Q00526 whole entry, looked up): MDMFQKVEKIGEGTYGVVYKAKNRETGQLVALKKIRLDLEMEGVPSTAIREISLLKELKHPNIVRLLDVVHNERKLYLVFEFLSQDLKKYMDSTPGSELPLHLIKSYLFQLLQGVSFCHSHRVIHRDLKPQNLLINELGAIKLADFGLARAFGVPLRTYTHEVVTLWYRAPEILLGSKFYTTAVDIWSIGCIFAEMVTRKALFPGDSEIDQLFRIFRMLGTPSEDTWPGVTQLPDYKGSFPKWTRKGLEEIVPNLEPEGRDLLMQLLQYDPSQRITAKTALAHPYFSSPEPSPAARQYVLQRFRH

Consider `O=C(NC1CCNCC1)c1n[nH]cc1NC(=O)c1c(Cl)cccc1Cl` [AT-7519], for which the 50% inhibitory concentration (IC50) is 1.15 µM in the assay on U-937, 2.33 µM in the assay with HL-60, 1.22 µM in assay [1] and 1.48 µM in the assay with Kasumi 1 [2]. In addition, the CI with Kasumi 1 [3] is below 1. The inhibition in [4] was determined as 24%; in assay [5], 39.3%; in assay [6], 31.4%; in assay [7], 26.5%; in assay [8], 68.7%; in [9] it was 74.6%. Also, the inhibition in assay [10] is 76.9%; in assay [11], 62.5%; in assay [12] it was 56.8%; in assay [13], 33.2%; in assay [14], 85%; in [15] it was 87%. In assay [16], the inhibition amounted to 6.49%.

As a reminder, the IC50 is the midpoint of a concentration-inhibition curve. High values mean weaker potency, low ones greater potency. In general, inhibition refers to the drop in the measured response relative to a control, in per cent.
